Data set [1] relates to Caco-2 cells. The data set is described as follows: Intracellular accumulation and trans-epithelial transport in polarised Caco-2 cells. It counts as in vitro ADME, human. As to the method: Caco-2 cells were seeded at a density of 0.8×10^6 cells per well of a Transwell Clear filter 6 well plate, 0.4 μm pore size. The cells were incubated with 2 mL medium in both apical and basolateral chambers. This medium was replaced every 2 days for 10-14 days. Transepithelial resistance was measured using Millicell ERS apparatus (Millipore) at day 7, 10 and/or 14 in order to identify when the cells had become polarised. Readings of >1000 Ω were indicative of polarised cells. […]
All the supernatant and cell samples were transported frozen (at approximately −20° C.) to York Bioanalytical Solutions (York, England) for analysis. Briefly, 0.25 g of buffer (RPMI medium containing 10% FCS) was weighed into a polypropylene tube. A 50 μL volume of the appropriate working solution was added to the quality control (QC) samples. Methanol (50 μL) was added to each blank sample used for preparation of calibration standards, recovery samples and reagent blanks. A 2.5 mL volume of 0.1 M phosphate buffer was added to each sample, vortex mixed for approximately 1 min and then centrifuged at 3220×g for 10 min at 4° C.
For the liquid-liquid clean-up phase, an aliquot (100 μL) of the supernatant was transferred to a polypropylene tube. The pH was adjusted to pH 8-8.5 by the addition of 0.1 M NaOH, and vortex mixed. Ethyl acetate (5 mL) was added and after capping, the whole mixture was shaken for 10 min and then centrifuged at 3220×g for 10 min at 4° C.
Ammonium acetate (20 mM; pH native)—formic acid, 1000:3, v/v (100 μL) was added to each well in a 2 mL polypropylene collection plate. An aliquot of the ethyl acetate mixture (100 μL) was transferred to the polypropylene collection plate and evaporated under nitrogen (40° C.) until the ethyl acetate was fully evaporated whilst the ammonium acetate remained. Methanol (100 μL) was added to each well, excluding the calibration standards.
To each well containing a calibration standard, 100 μL of the appropriate calibration working solution was added. Samples were then vortex mixed for at least 10 min and submitted for liquid chromatography with tandem mass spectrometric analysis. The method stated was applicable to the samples of media (and the calibration standards and quality control samples).
For the cells, the sample tubes were weighed, and 100 μL of acetonitrile was added. The samples were vortex mixed for 10 sec, then centrifuged at 10285×g at 4° C. for 5 min. The sample was transferred to a polypropylene tube. The original sample tube was washed with 0.1 M phosphate buffer (1 mL). This was transferred to the polypropylene tube. A second wash of 1 mL was made, then a final wash of 0.5 mL. The polypropylene tube was now at the same stage as the end of the liquid extraction, but with the cells present rather than media. This was then taken through the sample preparation as described above. The original sample tubes were allowed to dry (i.e. any remaining solvent evaporated off) and were then reweighed to determine the weight of cells in the sample, to allow the concentration per gram of cells to be determined.

For data set [2], the system named is PRRSV. In words: PRRSV infection and cell spread in MA104 cells, drug added after infection (Example 5). It counts as cell-based. Particulars: moi 0.01, 1 μg/ml added 8 hours post infection. As to the method:
MA104 cells were infected with PRRSV at moi of 0.01 (should infect roughly 10% of the cells in the first round). 8 hours post infection tylvalosin, tylosin and tilmicosin were added at 1 μg/ml. Cells were harvested 28 hours post infection and infection was assessed by indirect immunofluorescence.
As stated above a moi of 0.01 should infect roughly 10% of the cells. However, after 28 hours the virus will have completed one round of infection and will have infected neighbouring cells. […] This detection increases 16-20 hours post infection and by 24 hours low levels of expression in neighbouring cells can be detected.
The addition of drugs 8 hours post infection should have no effect on the primary infection (i.e. no effect on entry of input virus). It could, however, effect viral replication directly or indirectly through other mechanisms and could also effect virus entry during the secondary round of infection where virus produced by the initially infected cells infects neighbouring cells.

The mark [3] stands for this setting: Caco-2, 10 μg/mL, apical administration, 240 min.
Where [4] appears, read: Caco-2, 100 μg/mL, apical administration, 30 min.
[5] abbreviates: Caco-2, 100 μg/mL, apical administration, 240 min.
Where [6] appears, read: Caco-2, 100 μg/mL, apical administration, between 60 min and 120 min.
The mark [7] stands for this setting: Caco-2, 100 μg/mL, basolateral administration, 30 min.
The mark [8] stands for this setting: Caco-2, 100 μg/mL, basolateral administration, 240 min.

The values below come from patent US9649324B2, “Use of tylvalosin as antiviral agent” (ECO ANIMAL HEALTH LIMITED, priority 2006, dated 2017).

Each structure is given as a SMILES string.

`CCC1OC(=O)CC(OC(C)=O)C(C)C(OC2OC(C)C(OC3CC(C)(O)C(OC(=O)CC(C)C)C(C)O3)C(N(C)C)C2O)C(CC=O)CC(C)C(=O)C=CC(C)=CC1COC1OC(C)C(O)C(OC)C1OC` (stereo not shown) [tylvalosin, 3-O acetyl-4″-O-isovaleryltylosin] registered an average intracellular concentration in data set [1] (Caco-2, 10 μg/mL, apical administration, 120 min) of 42.2 μg/mg cells. In addition, in data set [1] (setting [3]), the average intracellular concentration is recorded as 34.3 μg/mg cells, the “basolateral chamber content as average % of the apical chamber value” worked out at 10.47% and the “intracellular:extracellular ratio (fold concentration)” value was 3.49 fold. In addition, in data set [1] (setting [4]), the average intracellular concentration is listed as 428 μg/mg cells and the “intracellular:extracellular ratio” value was determined as 4.64. Moreover, in data set [1] (setting [5]), the intracellular concentration was 375 μg/mg cells, the “intracellular:extracellular ratio” value is listed as 5.85 and the “tylvalosin in opposite (basolateral) chamber compared to the administration chamber” value was determined as 19%. In data set [1] (setting [6]), the “intracellular:extracellular ratio (peak, average value)” value is listed as 10.23-15.58 and the maximum intracellular concentration is on record as 559.5-620 μg/mg cells. Besides, in data set [1] (setting [7]), the average intracellular concentration was 493 μg/mg cells and the “intracellular:extracellular ratio” value is listed as 7. Moreover, in data set [1] (setting [8]), the intracellular concentration came to 155.5 μg/mg cells, the “intracellular:extracellular ratio” value was 3.57 and the “tylvalosin in opposite (apical) chamber compared to the administration chamber” value was determined as 22.05%. Also, in data set [1] (Caco-2, after 4 h (discussion)), the “total amount of tylvalosin transported across the cells” value is “about 20%”. Besides, the “spread of the virus to neighbouring cells” value in data set [2] was “prevented spread”. The molecule further returned a virus positive cells in data set [2] (harvested 28 hours post infection) of 1%.
